Experimental data reported in patent US20180267025A1, “CANCER ANALYSIS SYSTEM” (Xcell Biosciences, Inc., priority 2013, published 2018).

Test system: single cells
Assay: chemosensitivity assay on single cells (live-cell imaging, FIG. 10)
Format: cell-based
Details: single cell imaged before, upon addition, and 2 minutes and 5 minutes after Y-27632 treatment
Description: FIG. 10 depicts a chemosensitivity assay conducted on single cells. Target cell subpopulations can be used for personalized medicine. In the instance of CTCs and CSCs, cells can be used for chemosensitivity testing on whereby standard and exploratory chemotherapy regimens can be tested on cultured CTCs and determination of the effects of chemotherapy drugs on CTCs, including cell viability and cell division rates measurement to determine the efficacy of a given drug. An example of how a chemosensitivity assay can be applied is depicted in FIG. 10. […] In this example, Rho Kinase inhibitor, Y-27632 was used (Ishizaki et al. 2000 Pharmacological Properties of Y-27632, a specific inhibitor of rho-associated kinases. Mol Pharmacol. 57(5):976-83). […] The plasma membrane of the cell retracts upon drug treatment after 2 minutes 1015 and 5 minutes 1020.

C[C@@H](N)[C@H]1CC[C@H](C(=O)Nc2ccncc2)CC1 [Y-27632]
effect on cell adhesions and plasma membrane of a single cell upon drug treatment: loss of adhesions and retraction of the plasma membrane
